Experimental data from patent publication US8008291B2 (Mimetica Pty Ltd, priority 2008, dated 2011).

Target: T1, human MC5R (hMC5R) (Homo sapiens, UniProt P33032)
T1 construct: purchased Perkin Elmer RBXMC5M400UA
Assay: Human MC5R radioligand binding assay (membranes, [125I] NDP-MSH displacement)
Details: hMC5R binding; tested as trifluoroacetate or hydrochloride salts, or free bases; read-out: MC5R radioligand IC50
Procedure, shortened: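 Displacement of [125I]NDP-MSH (radioiodinated in house, HPLC-purified) from hMC5R membranes by test compound measured after 1 hr incubation at 37° C.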

T1 sequence (P33032 whole entry): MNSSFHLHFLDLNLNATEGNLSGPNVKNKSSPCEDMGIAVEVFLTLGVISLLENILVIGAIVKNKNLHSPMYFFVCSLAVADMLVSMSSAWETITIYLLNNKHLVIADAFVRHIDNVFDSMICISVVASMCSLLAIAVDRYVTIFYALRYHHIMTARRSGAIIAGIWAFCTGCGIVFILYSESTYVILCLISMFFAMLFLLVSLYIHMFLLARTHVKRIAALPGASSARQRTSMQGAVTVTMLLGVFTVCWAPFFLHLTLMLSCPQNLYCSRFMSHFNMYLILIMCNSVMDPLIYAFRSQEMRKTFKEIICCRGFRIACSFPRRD

Row | SMILES | IC50 [nM]
1 | Cc1ccc(/C=C/C(=O)NC[C@@H]2CCN(CC(c3ccccc3)c3ccccc3)C(=O)[C@H](CCN3CCCCC3)N2)c(C)c1 [Compound 398, (E)-3-(2,4-dimethylphenyl)-N-(((3S,5S)-1-(2,2-diphenylethyl)-2-oxo-3-(2-(piperidin-1-yl)ethyl)-1,4-diazepan-5-yl)methyl)acrylamide] | < 100
2 | NCCC[C@@H]1N[C@H](CNC(=O)c2ccc3ccccc3c2)CCN(Cc2c(Cl)cccc2Cl)C1=O [Compound 315, N-(((3S,5S)-3-(3-aminopropyl)-1-(2,6-dichlorobenzyl)-2-oxo-1,4-diazepan-5-yl)methyl)-2-naphthamide] | < 10000
3 | NCCCC[C@@H]1N[C@H](CNC(=O)[C@H]2Cc3ccccc3CN2)CCN(CC(c2ccccc2)c2ccccc2)C1=O [Compound 128, (R)—N-(((3S,5S)-3-(4-aminobutyl)-1-(2,2-diphenylethyl)-2-oxo-1,4-diazepan-5-yl)methyl)-1,2,3,4-tetrahydroisoquinoline-3-carboxamide] | < 1000
4 | O=C(/C=C/c1ccc(Cl)cc1)NC[C@@H]1CCN(CC(c2ccccc2)c2ccccc2)C(=O)[C@H](CCN2CCOCC2)N1 [Compound 403, (E)-3-(4-chlorophenyl)-N-(((3S,5S)-1-(2,2-diphenylethyl)-3-(2-morpholinoethyl)-2-oxo-1,4-diazepan-5-yl)methyl)acrylamide] | < 100
5 | CC[C@@H](CN1CC[C@@H](CNC(=O)c2ccc3ccccc3c2)N[C@@H](CCN2CCCCC2)C1=O)c1ccccc1 [Compound 39, N-(((3S,5S)-2-oxo-1-((R)-2-phenylbutyl)-3-(2-(piperidin-1-yl)ethyl)-1,4-diazepan-5-yl)methyl)-2-naphthamide] | < 100
6 | C[C@@H](C(c1ccccc1)c1ccccc1)N1CC[C@@H](CNC(=O)c2ccc3ccccc3c2)N[C@@H](CCCNC(=N)N)C1=O [Compound 203, N-(((3S,5S)-1-((S)-1,1-diphenylpropan-2-yl)-3-(3-guanidinopropyl)-2-oxo-1,4-diazepan-5-yl)methyl)-2-naphthamide] | < 100
7 | CC[C@H](CN1CCC(CNC(=O)c2ccc3cc(Cl)ccc3c2)NC(C2CCNCC2)C1=O)c1ccccc1 (stereo partly drawn) [Compound 447, (S)-6-chloro-N-((2-oxo-1-(2-phenylbutyl)-3-(piperidin-4-yl)-1,4-diazepan-5-yl)methyl)-2-naphthamide] | < 100
8 | CCCOC(=O)N[C@@H](Cc1ccc2ccccc2c1)[C@@H]1CCN(CC(c2ccccc2)c2ccccc2)C(=O)[C@H](CCCNC(=N)N)N1 [Compound 83, propyl (S)-1-((3S,5S)-1-(2,2-diphenylethyl)-3-(3-guanidinopropyl)-2-oxo-1,4-diazepan-5-yl)-2-(naphthalen-2-yl)ethylcarbamate] | < 1000
9 | CCC(CN1CC[C@@H](CNC(=O)c2ccc3cc(Cl)ccc3c2)N[C@@H](CCN)C1=O)C1CC1 (stereo partly drawn) [Compound 487, N-(((3S,5S)-3-(2-aminoethyl)-1-(2-cyclopropylbutyl)-2-oxo-1,4-diazepan-5-yl)methyl)-6-chloro-2-naphthamide] | < 1000
10 | CC(CN1CC[C@@H](CNC(=O)c2ccc3ccccc3c2)N[C@@H](CCCNC(=N)N)C1=O)(c1ccccc1)c1ccccc1 [Compound 200, N-(((3S,5S)-1-(2,2-diphenylpropyl)-3-(3-guanidinopropyl)-2-oxo-1,4-diazepan-5-yl)methyl)-2-naphthamide] | < 1000
11 | NCCCC[C@@H]1N[C@H](CNC(=O)c2cc3ccccc3o2)CCN(CC(c2ccccc2)c2ccccc2)C1=O [Compound 129, N-(((3S,5S)-3-(4-aminobutyl)-1-(2,2-diphenylethyl)-2-oxo-1,4-diazepan-5-yl)methyl)benzofuran-2-carboxamide] | < 10000
12 | C/C(=C\c1ccccc1)C(=O)NC[C@@H]1CCN(CC(c2ccccc2)c2ccccc2)C(=O)[C@H](CCCNC(=N)N)N1 [Compound 173, (E)-N-(((3S,5S)-1-(2,2-diphenylethyl)-3-(3-guanidinopropyl)-2-oxo-1,4-diazepan-5-yl)methyl)-2-methyl-3-phenylacrylamide] | < 1000
13 | CCC(CN1CC[C@@H](CNC(=O)c2ccc3ccccc3c2)N[C@@H](CCCN)C1=O)c1ccccc1 (stereo partly drawn) [Compound 324, N-(((3S,5S)-3-(3-aminopropyl)-2-oxo-1-(2-phenylbutyl)-1,4-diazepan-5-yl)methyl)-2-naphthamide] | < 1000

More lines, now with the values ahead:

Row | IC50 [nM] | SMILES
14 | < 10000 | CS(=O)(=O)NCC[C@@H]1N[C@H](CNC(=O)c2ccc(Cl)c(Cl)c2)CCN(Cc2ccc(Cl)cc2Cl)C1=O [Compound 504, 3,4-dichloro-N-(((3S,5S)-1-(2,4-dichlorobenzyl)-3-(2-(methylsulfonamido)ethyl)-2-oxo-1,4-diazepan-5-yl)methyl)benzamide]
15 | < 10 | CC[C@H](CN1CC[C@@H](CNC(=O)c2ccc3cc(Cl)ccc3c2)N[C@@H](CCNC(C)C)C1=O)c1ccccc1 [Compound 440, 6-chloro-N-(((3S,5S)-3-(2-(isopropylamino)ethyl)-2-oxo-1-((S)-2-phenylbutyl)-1,4-diazepan-5-yl)methyl)-2-naphthamide]
16 | < 100 | CC[C@H](CN1CC[C@@H](CNC(=O)c2ccc3cc(Cl)ccc3c2)N[C@@H](CN2CCCCC2)C1=O)c1ccccc1 [Compound 415, 6-chloro-N-(((3S,5S)-2-oxo-1-((S)-2-phenylbutyl)-3-(piperidin-1-ylmethyl)-1,4-diazepan-5-yl)methyl)-2-naphthamide]
17 | < 100 | O=C(NC[C@@H]1CCN(CC(c2ccccc2)c2ccccc2)C(=O)[C@H](CCN2CCCCC2)N1)c1ccc(C(F)(F)F)cc1 [Compound 434, N-(((3S,5S)-1-(2,2-diphenylethyl)-2-oxo-3-(2-(piperidin-1-yl)ethyl)-1,4-diazepan-yl)methyl)-4-(trifluoromethyl)benzamide]
18 | < 10000 | O=C(/C=C/c1ccc(Cl)cc1)NC[C@@H]1CCN(CC(c2ccccc2)c2ccccc2)C(=O)[C@H](CNC(=O)C2CCCCC2)N1 [Compound 402, N-(((2S,7S)-7-(((E)-3-(4-chlorophenyl)acrylamido)methyl)-4-(2,2-diphenylethyl)-3-oxo-1,4-diazepan-2-yl)methyl)cyclohexanecarboxamide]
19 | < 100 | CC[C@@H](CN1CC[C@@H](CNC(=O)/C=C/c2ccc(Cl)cc2)N[C@@H](CCN2CCCCC2)C1=O)c1ccccc1 [Compound 364, (E)-3-(4-chlorophenyl)-N-(((3S,5S)-2-oxo-1-((R)-2-phenylbutyl)-3-(2-(piperidin-1-yl)ethyl)-1,4-diazepan-5-yl)methyl)acrylamide]
20 | < 10000 | CC[C@H](CN1CC[C@@H](CNC(=O)c2ccc(Cl)c(Cl)c2)N[C@@H](CCN2C(=O)CCC2=O)C1=O)c1ccccc1 [Compound 489, 3,4-dichloro-N-(((3S,5S)-3-(2-(2,5-dioxopyrrolidin-1-yl)ethyl)-2-oxo-1-((S)-2-phenylbutyl)-1,4-diazepan-5-yl)methyl)benzamide]
21 | < 1000 | CCC(CC)CN1CC[C@@H](CNC(=O)c2ccc3cc(Cl)ccc3c2)N[C@@H](CCN)C1=O [Compound 370, N-(((3S,5S)-3-(2-aminoethyl)-1-(2-ethylbutyl)-2-oxo-1,4-diazepan-5-yl)methyl)-6-chloro-2-naphthamide]
22 | < 10000 | CC[C@@H](CN1CC[C@@H](CNC(=O)c2ccc3ccccc3c2)N[C@@H](CCCN)C1=O)c1ccccc1 [Compound 390, N-(((3S,5S)-3-(3-aminopropyl)-2-oxo-1-((R)-2-phenylbutyl)-1,4-diazepan-5-yl)methyl)-2-naphthamide]
23 | < 10 | CC[C@H](CN1CC[C@@H](CNC(=O)c2cc(-c3ccc(Cl)cc3)on2)N[C@@H](CCN2CCCCC2)C1=O)c1ccccc1 [Compound 533, 5-(4-chlorophenyl)-N-(((3S,5S)-2-oxo-1-((S)-2-phenylbutyl)-3-(2-(piperidin-1-yl)ethyl)-1,4-diazepan-5-yl)methyl)isoxazole-3-carboxamide]
24 | < 100 | CC[C@H](CN1CC[C@@H](CNC(=O)/C=C/c2ccc(Cl)cc2)N[C@@H](CCNC(C)C)C1=O)c1ccccc1 [Compound 408, (E)-3-(4-chlorophenyl)-N-(((3S,5S)-3-(2-(isopropylamino)ethyl)-2-oxo-1-((S)-2-phenylbutyl)-1,4-diazepan-5-yl)methyl)acrylamide]
25 | < 100 | CC1CCC(C)N1CC[C@@H]1N[C@H](CNC(=O)/C=C/c2ccc(Cl)cc2)CCN(CC(c2ccccc2)c2ccccc2)C1=O (stereo partly drawn) [Compound 405, (E)-3-(4-chlorophenyl)-N-(((3S,5S)-3-(2-(2,5-dimethylpyrrolidin-1-yl)ethyl)-1-(2,2-diphenylethyl)-2-oxo-1,4-diazepan-5-yl)methyl)acrylamide]
26 | < 1000 | Cc1ccc(/C=C/C(=O)NC[C@@H]2CCN(CC(c3ccccc3)c3ccccc3)C(=O)[C@H](CCCNC(=O)C3CCCCC3)N2)cc1 [Compound 294, N-(3-((2S,7S)-4-(2,2-diphenylethyl)-3-oxo-7-(((E)-3-p-tolylacrylamido)methyl)-1,4-diazepan-2-yl)propyl)cyclohexanecarboxamide]
27 | < 10000 | NCC[C@@H]1N[C@H](CNC(=O)CCc2ccc(Cl)cc2)CCN(CC(c2ccccc2)c2ccccc2)C1=O [Compound 392, N-(((3S,5S)-3-(2-aminoethyl)-1-(2,2-diphenylethyl)-2-oxo-1,4-diazepan-5-yl)methyl)-3-(4-chlorophenyl)propanamide]
28 | < 10 | CC(C)NCC[C@@H]1N[C@H](CNC(=O)c2ccc3cc(Cl)ccc3c2)CCN(Cc2cc(Cl)cc(Cl)c2)C1=O [Compound 438, 6-chloro-N-(((3S,5S)-1-(3,5-dichlorobenzyl)-3-(2-(isopropylamino)ethyl)-2-oxo-1,4-diazepan-5-yl)methyl)-2-naphthamide]
29 | < 1000 | CCC(CC)CN1CC[C@@H](CNC(=O)c2ccc3cc(Br)ccc3c2)N[C@@H](CCN)C1=O [Compound 371, N-(((3S,5S)-3-(2-aminoethyl)-1-(2-ethylbutyl)-2-oxo-1,4-diazepan-5-yl)methyl)-6-bromo-2-naphthamide]
